Structures are written as SMILES.

TRKA kinase, sequence (P04629 33-796): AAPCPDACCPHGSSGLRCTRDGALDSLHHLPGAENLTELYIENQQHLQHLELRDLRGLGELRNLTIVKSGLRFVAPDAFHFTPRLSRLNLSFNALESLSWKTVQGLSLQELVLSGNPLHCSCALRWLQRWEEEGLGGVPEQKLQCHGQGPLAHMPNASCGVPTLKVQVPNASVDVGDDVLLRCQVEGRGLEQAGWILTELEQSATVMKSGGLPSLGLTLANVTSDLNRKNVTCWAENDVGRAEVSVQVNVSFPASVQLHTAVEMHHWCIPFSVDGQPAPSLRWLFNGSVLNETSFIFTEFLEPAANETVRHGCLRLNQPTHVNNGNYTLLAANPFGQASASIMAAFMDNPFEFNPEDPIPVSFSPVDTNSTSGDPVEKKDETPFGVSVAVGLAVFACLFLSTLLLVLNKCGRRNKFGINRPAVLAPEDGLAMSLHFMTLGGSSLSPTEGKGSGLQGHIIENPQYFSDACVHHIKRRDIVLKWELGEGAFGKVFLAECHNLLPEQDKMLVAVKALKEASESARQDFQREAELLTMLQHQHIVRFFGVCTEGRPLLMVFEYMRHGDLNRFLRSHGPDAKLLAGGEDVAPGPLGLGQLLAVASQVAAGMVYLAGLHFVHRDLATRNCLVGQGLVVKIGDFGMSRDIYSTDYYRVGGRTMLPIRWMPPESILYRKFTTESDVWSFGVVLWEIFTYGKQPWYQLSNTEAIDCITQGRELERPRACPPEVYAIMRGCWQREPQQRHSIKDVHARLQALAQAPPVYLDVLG

The target in the experiment is TRKA kinase (Homo sapiens (Human), UniProt P04629). In words: Assay of small molecular compounds for inhibiting the activity of TRKA kinase (LANCE TR-FRET). The format is biochemical. Put shortly:
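LANCE TR-FRET with ULight-TK peptide; compounds pre-incubated 5 min with TRKA (2× solution 2 nM), then substrate/ATP added (4× mix: 400 nM peptide, 40 μM ATP). Reaction 60 min at room temperature in dark, 1% DMSO final; stopped, detection developed 60 min, signal read.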
Regarding `COc1cc2ncnc(Oc3ccc(NC(=O)c4cccn(-c5ccc(F)cc5)c4=O)cc3F)c2c2c1OCCO2` [Example 1, N-(3-fluoro-4-((5-methoxy-2,3-dihydro-[1,4]dioxino[2,3-f]quinazolin-10-yl)oxy)phenyl)-1-(4-fluorophenyl)-2-oxo-1,2-dihydropyridine-3-carboxamide], the concentration for half-maximal inhibition (IC50) is < 50 nM.

With `COc1cc2ncnc(Oc3ccc(NC(=O)c4c(OC)ccn(-c5ccc(F)cc5)c4=O)cc3F)c2c2c1OCCO2` [Example 2, N-(3-fluoro-4-((5-methoxy-2,3-dihydro-[1,4]dioxino[2,3-f]quinazolin-10-yl)oxy)phenyl)-1-(4-fluorophenyl)-4-methoxy-2-oxo-1,2-dihydropyridine-3-carboxamide], the IC50 is < 50 nM.

For `CCOc1ccn(-c2ccc(F)cc2)c(=O)c1C(=O)Nc1ccc(Oc2ncnc3cc(OC)c4c(c23)OCCO4)c(F)c1` [Example 3, N-(3-fluoro-4-((5-methoxy-2,3-dihydro-[1,4]dioxino[2,3-f]quinazolin-10-yl)oxy)phenyl)-1-(4-fluorophenyl)-4-ethoxy-2-oxo-1,2-dihydropyridine-3-carboxamide], the IC50 is < 50 nM.

Turning to `COc1cc2nccc(Oc3ccc(NC(=O)c4cn(CCO)c(=O)n(-c5ccc(F)cc5)c4=O)cc3F)c2c2c1OCCO2` [Example 45, N-(3-fluoro-4-((5-methoxy-2,3-dihydro-[1,4]dioxino[2,3-f]quinolin-10-yl)oxy)phenyl)-3-(4-fluorophenyl)-1-(2-hydroxyethyl)-2,4-dioxo-1,2,3,4-tetrahydropyrimidine-5-carboxamide], the IC50 fell in the range of 50 to 500 nM.

Take `CCOc1ccn(-c2ccc(F)cc2)c(=O)c1C(=O)Nc1ccc(Oc2ccnc3cc(OCCCN4CCN(C)CC4)c4c(c23)OCCO4)c(F)c1` [Example 49, N-(3-fluoro-4-((5-(3-(4-methylpiperazin-1-yl)propoxy)-2,3-dihydro-[1,4]dioxino[2,3-f]quinolin-10-yl)oxy)phenyl)-1-(4-fluorophenyl)-4-ethoxy-2-oxo-1,2-dihydropyridine-3-carboxamide]: the IC50 was < 50 nM.

`CCOc1ccn(-c2ccc(F)cc2)c(=O)c1C(=O)Nc1ccc(Oc2ccnc3cc(OCCCN4CCN(C(C)=O)CC4)c4c(c23)OCCO4)c(F)c1` [Example 50, N-(4-((5-(3-(4-acetyl-piperazin-1-yl)propoxy)-2,3-dihydro-[1,4]dioxino[2,3-f]quinolin-10-yl)oxy)-3-fluorophenyl)-4-ethoxy-1-(4-fluorophenyl)-2-oxo-1,2-dihydropyridine-3-carboxamide]: the IC50 is < 50 nM.

On to `CCOc1ccn(-c2ccc(F)cc2)c(=O)c1C(=O)Nc1ccc(Oc2ccnc3cc(OCCCN4CCS(=O)(=O)CC4)c4c(c23)OCCO4)c(F)c1` [Example 51, N-(4-((5-(3-(1,1-dioxidothiomorpholino)propoxy)-2,3-dihydro-[1,4]dioxino[2,3-f]quinolin-1 0-yl)oxy)-3-fluorophenyl)-4-ethoxy-1-(4-fluorophenyl)-2-oxo-1,2-dihydropyridine-3-carboxamide], for which the IC50 is < 50 nM.

On to `CCOc1ccn(-c2ccc(F)cc2)c(=O)c1C(=O)Nc1ccc(Oc2ccnc3cc(OCCCN4CCCC4)c4c(c23)OCCO4)c(F)c1` [Example 52, N-(4-((5-(3-(pyrrolidin-1-yl)propoxy)-2,3-dihydro-[1,4]dioxino[2,3-f]quinolin-10-yl)oxy)-3-fluorophenyl)-4-ethoxy-1-(4-fluorophenyl)-2-oxo-1,2-dihydropyridine-3-carboxamide], for which the IC50 is < 50 nM.

Regarding `CCOc1ccn(-c2ccc(F)cc2)c(=O)c1C(=O)Nc1ccc(Oc2ccnc3cc(OCCO)c4c(c23)OCCO4)c(F)c1` [Example 53, N-(4-((5-(2-hydroxyethoxy)-2,3-dihydro-[1,4]dioxino[2,3-f]quinolin-10-yl)oxy)-3-fluorophenyl)-4-ethoxy-1-(4-fluorophenyl)-2-oxo-1,2-dihydropyridine-3-carboxamide], the IC50 was < 50 nM.

As for `CCOc1ccn(-c2ccc(F)cc2)c(=O)c1C(=O)Nc1ccc(Oc2ccnc3cc(OCCCO)c4c(c23)OCCO4)c(F)c1` [Example 54, N-(4-((5-(3-hydroxypropoxy)-2,3-dihydro-[1,4]dioxino[2,3-f]quinolin-10-yl)oxy)-3-fluorophenyl)-4-ethoxy-1-(4-fluorophenyl)-2-oxo-1,2-dihydropyridine-3-carboxamide], the IC50 was < 50 nM.

`CCOc1ccn(-c2ccc(F)cc2)c(=O)c1C(=O)Nc1ccc(Oc2ccnc3cc(OCCCOC)c4c(c23)OCCO4)c(F)c1` [Example 55, N-(4-((5-(3-methoxypropoxy)-2,3-dihydro-[1,4]dioxino[2,3-f]quinolin-10-yl)oxy)-3-fluorophenyl)-4-ethoxy-1-(4-fluorophenyl)-2-oxo-1,2-dihydropyridine-3-carboxamide]: the IC50 is < 50 nM.

As for `CCOc1ccn(-c2ccc(F)cc2)c(=O)c1C(=O)Nc1ccc(Oc2ccnc3cc(OCC#N)c4c(c23)OCCO4)c(F)c1` [Example 56, N-(4-((5-(cyanomethoxy)-2,3-dihydro-[1,4]dioxino[2,3-f]quinolin-10-yl)oxy)-3-fluorophenyl)-4-ethoxy-1-(4-fluorophenyl)-2-oxo-1,2-dihydropyridine-3-carboxamide], the IC50 was < 50 nM.

Regarding `CCOc1ccn(-c2ccc(F)cc2)c(=O)c1C(=O)Nc1ccc(Oc2ccnc3cc(OCCCC#N)c4c(c23)OCCO4)c(F)c1` [Example 57, N-(4-((5-(3-cyanopropoxy)-2,3-dihydro-[1,4]dioxino[2,3-f]quinolin-10-yl)oxy)-3-fluorophenyl)-4-ethoxy-1-(4-fluorophenyl)-2-oxo-1,2-dihydropyridine-3-carboxamide], the IC50 is < 50 nM.

In the case of `CCOc1ccn(-c2ccc(F)cc2)c(=O)c1C(=O)Nc1ccc(Oc2ccnc3cc(OCC(C)C)c4c(c23)OCCO4)c(F)c1` [Example 58, N-(4-((5-(isobutyloxy)-2,3-dihydro-[1,4]dioxino[2,3-f]quinolin-10-yl)oxy)-3-fluorophenyl)-4-ethoxy-1-(4-fluorophenyl)-2-oxo-1,2-dihydropyridine-3-carboxamide], the IC50 lay in the range of 50 to 500 nM.

Consider `CCOc1ccn(-c2ccc(F)cc2)c(=O)c1C(=O)Nc1ccc(Oc2ccnc3cc(OCC4CC4)c4c(c23)OCCO4)c(F)c1` [Example 59, N-(4-((5-(cyclopropylmethoxy)-2,3-dihydro-[1,4]dioxino[2,3-f]quinolin-10-yl)oxy)-3-fluorophenyl)-4-ethoxy-1-(4-fluorophenyl)-2-oxo-1,2-dihydropyridine-3-carboxamide], for which the IC50 lay within 50 to 500 nM.

Consider `CCOc1cc2nccc(Oc3ccc(NC(=O)c4c(OCC)ccn(-c5ccc(F)cc5)c4=O)cc3F)c2c2c1OCCO2` [Example 62, N-(4-((5-ethoxy-2,3-dihydro-[1,4]dioxino[2,3-f]quinolin-10-yl)oxy)-3-fluorophenyl)-4-ethoxy-1-(4-fluorophenyl)-2-oxo-1,2-dihydropyridine-3-carboxamide], for which the IC50 was < 50 nM.

In the case of `CCOc1ccn(-c2ccc(F)cc2)c(=O)c1C(=O)Nc1ccc(Oc2ccnc3cc(OC(C)C)c4c(c23)OCCO4)c(F)c1` [Example 63, N-(4-((5-isopropoxy-2,3-dihydro-[1,4]dioxino[2,3-f]quinolin-10-yl)oxy)-3-fluorophenyl)-4-ethoxy-1-(4-fluorophenyl)-2-oxo-1,2-dihydropyridine-3-carboxamide], the IC50 fell in the range of 50 to 500 nM.

With `CCOc1ccn(-c2ccc(F)cc2)c(=O)c1C(=O)Nc1ccc(Oc2ccnc3cc(OC4COC4)c4c(c23)OCCO4)c(F)c1` [Example 64, N-(4-((5-((oxetan-3-yl)oxy)-2,3-dihydro-[1,4]dioxino[2,3-f]quinolin-10-yl)oxy)-3-fluorophenyl)-4-ethoxy-1-(4-fluorophenyl)-2-oxo-1,2-dihydropyridine-3-carboxamide], the IC50 was < 50 nM.

With `CCOc1ccn(-c2ccc(F)cc2)c(=O)c1C(=O)Nc1ccc(Oc2ccnc3cc(OC4CCOC4)c4c(c23)OCCO4)c(F)c1` (centres unmarked) [Example 65, N-(4-((5-((tetrahydrofuran-3-yl)oxy)-2,3-dihydro-[1,4]dioxino[2,3-f]quinolin-10-yl)oxy)-3-fluorophenyl)-4-ethoxy-1-(4-fluorophenyl)-2-oxo-1,2-dihydropyridine-3-carboxamide], the IC50 was < 50 nM.

Consider `CCOc1ccn(-c2ccc(F)cc2)c(=O)c1C(=O)Nc1ccc(Oc2ccnc3cc(OC4CCOCC4)c4c(c23)OCCO4)c(F)c1` [Example 66, N-(4-((5-((tetrahydropyran-4-yl)oxy)-2,3-dihydro-[1,4]dioxino[2,3-f]quinolin-10-yl)oxy)-3-fluorophenyl)-4-ethoxy-1-(4-fluorophenyl)-2-oxo-1,2-dihydropyridine-3-carboxamide], for which the IC50 was < 50 nM.

As for `CCOc1ccn(-c2ccc(F)cc2)c(=O)c1C(=O)Nc1ccc(Oc2ccnc3cc(OCCCN4CCC(C)(C)CC4)c4c(c23)OCCO4)c(F)c1` [Example 67, N-(4-((5-(3-(4,4-dimethylpiperidin-1-yl)propoxy)-2,3-dihydro-[1,4]dioxino[2,3-f]quinolin-10-yl)oxy)-3-fluorophenyl)-4-ethoxy-1-(4-fluorophenyl)-2-oxo-1,2-dihydropyridine-3-carboxamide], the IC50 was < 50 nM.

For the molecule `CCOc1ccn(-c2ccc(F)cc2)c(=O)c1C(=O)Nc1ccc(Oc2ccnc3cc(OCCCN4CCC(C)(N)CC4)c4c(c23)OCCO4)c(F)c1` [Example 68, N-(4-((5-(3-(4-amino-4-methylpiperidin-1-yl)propoxy)-2,3-dihydro-[1,4]dioxino[2,3-f]quinolin-10-yl)oxy)-3-fluorophenyl)-4-ethoxy-1-(4-fluorophenyl)-2-oxo-1,2-dihydropyridine-3-carboxamide], the IC50 is < 50 nM.

Take `CCOc1ccn(-c2ccc(F)cc2)c(=O)c1C(=O)Nc1ccc(Oc2ccnc3cc(OCCCN4CCC(C)(O)CC4)c4c(c23)OCCO4)c(F)c1` [Example 69, N-(4-((5-(3-(4-hydroxy-4-methylpiperidin-1-yl)propoxy)-2,3-dihydro-[1,4]dioxino[2,3-f]quinolin-10-yl)oxy)-3-fluorophenyl)-4-ethoxy-1-(4-fluorophenyl)-2-oxo-1,2-dihydropyridine-3-carboxamide]: the IC50 was < 50 nM.

The record behind these values is patent publication US12202835B2, “Substituted aromatic ring-linked dioxinoquinazolines and dioxinoquinolines as kinase inhibitors” (BEIJING SCITECH-MQ PHARMACEUTICALS LIMITED, priority 2018, dated 2025).
